Where two headings read alike, the source gives them in different places. Non-standard residues stand in square brackets, D forms with d. No end group written: not given here. *: point of attachment. 3,4‑dihydroxyphenethylamine = Oc1ccc(CCN*)cc1O; pS = N[C@@H](COP(=O)(O)O)C(=O)O
What was measured:
[1] = Demineralization assay of peptide-coated enamel (Example 1); design: species or system human; conditions: for Maximum lesion depth: 8 μmol/mL coating, MicroCT
Method: (§1) 3×3×1.5 mm^3 (number: 197) tooth slices were prepared using a water-cooled diamond saw (IsoMet low-speed saw, Buehler, Lake Bluff, IL, USA). One working surface of complete enamel tissue from each tooth slice was generated using the MicroCT Skyscan 1172 (Bruker MicroCT, Kontich, Belgium). The enamel working side of the tooth slice was polished and other sides marked with acid-proof nail polish. All tooth slices were cleaned and stored in deionized water at 4° C.
Tooth slices (N=30) were immersed in 8 μmol/mL P-113, P-113-DPS, P-113-DA, P-113-SK, Sp-H5 (n=5 for each) solutions (in 10 mM HEPES) or HEPES (control) overnight. Tooth slices were incubated in 2 mL demineralization solution (2.2 mM CaCl2), 2.2 mM NaH2PO4, 0.05 M acetic acid, pH 4.5) for 7 days at 37° C. Lesions depths were analyzed by MicroCT Skyscan 1172. Mineral calcium (Ca) or phosphorus (P) concentrations before and after immersion were measured using Inductively Coupled Plasma Optical Emission Spectrometer (ICP-OES; Spectro Arcos, Kleve, Germany). Ca/P loss was expressed as mM/cm^2. The mean values of Ca/P loss were analyzed for each group using ANOVA at the 1% c significance level.

[2] = system: S. mutans biofilms; assay type: cell-based; conditions: for S. mutans killed (biofilm) / Viability counts of S. mutans biofilms: 24 h exposure
Method: (§2) Streptococcus mutans (ATCC 35668, ATCC, Manassas, USA) were cultured in Horse Blood Medium under anaerobic (85% N2, 10% H2, and 5% CO2) conditions at 37° C. Cells were harvested by centrifugation (5000 rpm, 10 min), washed once with 10 mM sodium phosphate-buffered saline (PBS, pH 7.2), and resuspended in brain-heart infusion broth (BHI, Difco Laboratories, Detroit, USA) at a concentration of 10^6 CFU/mL.
S. mutans biofilms were cultured on enamel working surfaces in a 96-well plate. Tooth slices (N=32) were autoclave-sterilized prior to anti-biofilm activity testing. 200 μL S. mutans in BHI (10^6 CFU/mL) was added to each well. After a 24-h incubation at 37° C., each tooth slice was washed once with PBS. […] (in 10 mM HEPES). After incubation, tooth slices were washed once with PBS. One tooth slice at random in each group was stained with the LIVE/DEAD BacLight Bacterial Viability Kit (L7012, Thermo Fisher Scientific, Waltham, USA) and incubated in the dark for 30 min. Fluorescence images were obtained using confocal laser scanning microscopy (CLSM, Fluoview 1000, Olympus, USA). A separate tooth slice was used for the counting of colony-forming units (CFU). Tooth slices were placed in 1 mL BHI solution, and adherent biofilms were removed from the enamel surfaces by sonication for 30 sec. Ten-fold serial dilutions of the suspensions were plated in duplicate on horse blood agar. CFU's were counted after 48-h incubation. Three independent biofilm experiments were performed.

[3] = Adsorption capacity assay: peptides with HA particles (Micro BCA); assay type: binding; conditions: for Concentration change (95% CI): initial vs final concentration with HA particles; for Final concentration (Mean ± SD): peptide solution mixed with HA particles (20 mg/tube), overnight 37° C.
Method: The adsorption of P-113, P-113-DPS, P-113-DA, and P-113-SK to HA particles (Sigma Chemical Co., St Louis, USA) was measured using the Micro BCA method with Sp-H5 as the control group. Solutions of P-113, P-113-DPS, P-113-DA, P-113-SK and Sp-H5 in 10 mM HEPES buffer (pH 7) were diluted to 10 nmol/mL concentrations, and 200 μL was placed into each tube (P-113, N=10; P-113-DPS, N=10; P-113-DA, N=10; P-113-SK, N=10; and Sp-H5, N=10). Peptide solutions were mixed with (n=5) or without (n=5) HA particles (20 mg/tube) in each group. Tubes were placed onto a rotator overnight at 37° C. for complete reaction. Tubes containing the peptide solution and HA were centrifuged (13000 rpm, 1 min) and the supernatant collected. Bovine serum albumin (BSA) standard solutions (working range=5-250 μg/mL) and working reagent were prepared using the Pierce BCA Protein Assay Kit (Rockford, IL, USA). Working reagents (100 μL/well) were added to a 96-well plate, followed by standard and peptide solutions (100 μL/well). The Plate was incubated in the dark for 30 min and the absorbance (562 nm) measured using a plate reader. The concentration (C) of the BSA standard solution was linear with the absorbance (A) at 562 nm. The function of C=a*A+b was determined (a and b as constants). The final concentration (the peptide solution mixed with HA) and the initial concentration (the peptide solution without HA) were computed using the function and the generated absorbance data of the peptide solution mixed with and without HA.

[4] = Remineralization assay of peptide-coated enamel (Example 1); design: species or system human; conditions: 8 μmol/mL coating, remineralization solution 24 h, FE-SEM
Method: as §1
The enamel working surface of tooth slices (N=30) was acid-etched in 37% phosphoric acid for 1 min and rinsed with deionized water for 1 min. The slices were immersed in 8 μmol/mL P-113, P-113-DPS, P-113-DA, P-113-SK, Sp-H5 (n=5 for each) solutions (in 10 mM HEPES) or HEPES (control) overnight. All tooth slices were incubated in 7 mL remineralization solution (2.58 mM CaCl2)·2H2O, 1.55 mM KH2PO4, 10 mg/L NaF, 180 mM NaCl, 50 mM Tris-HCl, pH 7.6) for 24 h. The enamel surface and cross-section morphology were analyzed by FE-SEM (Hitachi, S4800). Ca/P concentrations in the solutions before and after immersion were calculated by ICP-OES. The mean values for Ca/P gain were analyzed using ANOVA at the 1‰ significance level.

[5] = system: S. mutans; assay: Anti-planktonic bacterial ability, MIC and MBC (Example 1); assay type: cell-based, Streptococcus mutans (ATCC 35668); conditions: for MIC: 24 h
Method: as §2
Two-fold serial dilutions (in 10 mM HEPES) of P-113, P-113-DPS, P-113-DA, P-113-SK, and Sp-H5 prepared in 25% BHI medium were pipetted into a 96-well cell culture plate at final concentrations from 0.125-128 μmol/mL [100 μL/well]. Each well was seeded with 10 μL bacterial suspension at a final concentration of 10^6 CFU/mL. Sp-H5 with bacterial cells and 25% BHI medium with and without bacterial cells in 10 mM HEPES buffer (pH 7) were used as the positive, negative, and blank control group, respectively. After a 24-h incubation, absorbance was measured at 595 nm using a microplate reader to assess cell growth. […] The minimal bactericidal concentration (MBC) was defined as the lowest concentration of peptide resulting in no colony formation on agar plates after incubation. 10 μL of cell suspension from each well were plated on horse blood agar plates and incubated at 37° C. for 48 h. All determinations were conducted in triplicate experiments.

[6] = system: S. gordonii; assay: Anti-planktonic bacterial ability, MBC (Example 2); assay type: cell-based, S. gordonii (ATCC 35105)
Method: (§3) S. mutans (ATCC 35668, ATCC, Manassas, USA), S. gordonii (ATCC 35105, ATCC, Manassas, USA), and S. sanguinis (ATCC 10556, ATCC, Manassas, USA) strains were cultured in brain-heart infusion broth (BHI, Difco Laboratories, Detroit, USA) at 37° C. under anaerobic conditions (85% N2, 10% H2, and 5% CO2). Bacteria were harvested by centrifugation (5000 rpm, 10 min), washed once with sodium phosphate-buffered saline (PBS, 10 mM, pH=7.2), and resuspended in BHI at a concentration of 1×10^6 CFU mL^−1.
(§4) Each well was seeded with 10 μL S. mutans suspension, S. gordonii suspension, and S. sanguinis suspension, respectively. […] The bacterial growth was assessed by measuring the absorbance at 595 nm using a microplate reader after a 24-hour incubation. Subsequently, 10 μL of bacterial suspension from each well were plated on horse blood agar plates and incubated at 37° C. for 48 h. The antibacterial activities of AMPs were evaluated.

[7] = system: S. sanguinis; assay: Anti-planktonic bacterial ability, MBC (Example 2); assay type: cell-based, S. sanguinis (ATCC 10556)
Method: as §3, §4

[8] = system: S. mutans; assay: Anti-planktonic bacterial ability, MBC (Example 2); assay type: cell-based, S. mutans (ATCC 35668)
Method: as §3, §4

[9] = in vitro; conditions: human, human saliva (centrifuged, filtered supernatant)
Method: (§5) The collected saliva samples were centrifuged at 12,000 rpm for 20 min^21]. The supernatant was filtered to remove any debris. […] At 0, 0.5, 1, 2, 4, and 6 h, 40 uL solutions were taken from each sample and were analysed by High Performance Liquid Chromatography (HPLC-UV, 1525 Binary HPLC Pump, 2489 UV/Visible Detector, Waters, USA).

[10] = for Peptide concentration incubated in human saliva: 37° C.
Method: as §5

[11] = system: MC3T3-E1 cells; assay: Cytocompatibility test, CCK-8 (Example 2); design: Cytocompatibility: key to the marks not given beside the values
[12] = system: S. mutans; assay: Anti-bacterial adhesion ability on peptide-coated enamel (Example 1); assay type: cell-based, Streptococcus mutans (ATCC 35668); conditions: 32 μmol/mL coated, 5 h incubation
Method: as §2
After overnight incubation, they were placed in a 96-well plate, followed by 200 μL S. mutans in BHI (10^6 CFU/mL) and incubation at 37° C. for 5 h. Tooth slices were washed once with PBS, one tooth slice at random from each group was stained, and fluorescence images obtained by CLSM. Separate tooth slices were used for CFU counting. Three independent biofilm experiments were performed.

[13] = demineralization solution 7 days

Substance: AKRHHGYKRKFH-D-3,4-dihydroxyphenethylamine (AKRHHGYKRKFHD-{3,4‑dihydroxyphenethylamine}; not fully specified; printed as AKRHHGYKRKFH-D-3,4-dihydroxyphenethylamine) [Peptide P-113-DA]
- Maximum lesion depth [1, 13]: 110 μm
- Ca losses vs control group [1, 13]: Significant differences were not detected
- S. mutans killed (biofilm) ([2]; 64 μmol/mL): Approximately 99%
- Viability counts of S. mutans biofilms ([2]; 64 μmol/mL): 6.04E+05 CFU/mL
- CLSM live/dead state of S. mutans biofilm ([2]; 64 and 128 μmol/mL, 24 h): the majority of S. mutans were dead
- Concentration change (95% CI) [3]: −0.17 (−0.55-0.40)
- Final concentration (Mean ± SD) [3]: 10.05 ± 0.99 nM mL^−1
- Thickness of the regenerated crystal layer on the enamel surface [4]: 7 μm
- MBC [5]: 32 μM mL^−1
- MIC [5]: 16 μM mL^−1

Substance: AKRHHGYKRKFHDSSDSSDSSDSSDSSDSSDSSDSS [Peptide P-113-8DSS]
- MBC, S. gordonii [6]: >64 μM mL^−1
- MBC, S. sanguinis [7]: >64 μM mL^−1
- MBC, S. mutans [8]: >64 μM mL^−1

Substance: DSSDSSDSSDSSDSSDSSDSSDSSAKRHHGYKRKFH [Peptide 8DSS-P-113]
- MBC, S. gordonii [6]: 64 μM mL^−1
- MBC, S. sanguinis [7]: 64 μM mL^−1
- MBC, S. mutans [8]: >64 μM mL^−1

Substance: SpSpAKRHHGYKRKFH ([pS][pS]AKRHHGYKRKFH) [DPS-P-113]
- MBC, S. gordonii [6]: >64 μM mL^−1
- MBC, S. sanguinis [7]: >64 μM mL^−1
- MBC, S. mutans [8]: 64 μM mL^−1

Substance: TFFRLFNRAKRHHGYKRKFH [Peptide C8-P-113]
- remaining at 6 h, 1 mg mL^−1 [9]: 11.9%
- Peptide concentration incubated in human saliva ([10]; 0 h): 1 mg/mL
- Peptide concentration incubated in human saliva ([10]; 0.5 h): 0.9531 mg/mL
- Peptide concentration incubated in human saliva ([10]; 1 h): 0.8602 mg/mL
- Peptide concentration incubated in human saliva ([10]; 2 h): 0.4977 mg/mL
- Peptide concentration incubated in human saliva ([10]; 4 h): 0.3578 mg/mL
- Peptide concentration incubated in human saliva ([10]; 6 h): 0.119 mg/mL
- Stability ([10]; summary grade): −
- Concentrations with no significant differences in cell survival rates compared to the control group ([11]; MC3T3-E1, 24 h, ½×MBC, MBC and 2×MBC tested): all concentrations
- Cytocompatibility ([11]; summary grade): ++

Substance: TFFRLFNRAKRHHGYKRKFHDSSDSSDSSDSSDSSDSSDSSDSS (not fully specified) [C8-P-113-8DSS]
- MBC, S. gordonii [6]: >64 μM mL^−1
- MBC, S. sanguinis [7]: >64 μM mL^−1
- MBC, S. mutans [8]: 64 μM mL^−1

Substance: phosphoserine-DSHAKRHHGYKRKFHEKHHSHRGY (SDSHAKRHHGYKRKFHEKHHSHRGY; N-terminal phosphoserine; MOD_RES 1 Serine is phosphorylated) [Sp-H5, phosphoserine-histatin 5, used as control group]
- Viable counts of S. mutans on peptide-coated enamel surfaces [12]: 2.04E+05 CFU/mL
- Maximum lesion depth [1, 13]: 85 μm
- Ca and P loss from coated enamel slices (ICP-OES) ([1]; vs P-113-, P-113-DA-, P-113-SK-coated or non-coated slices, P<0.001): decreased significantly
- S. mutans killed (biofilm) ([2]; 128 μmol/mL): Approximately 99%
- Viability counts of S. mutans biofilms ([2]; 128 μmol/mL): 2.0E+04 CFU/mL
- Concentration change (95% CI) [3]: 3.27 (2.92-3.58)
- Final concentration (Mean ± SD) [3]: 6.73 ± 0.12 nM mL^−1
- Thickness of the regenerated crystal layer on the enamel surface [4]: 6 μm
- MBC [5]: 32 μM mL^−1
- MIC [5]: 8 μM mL^−1

Reference: patent US20250296961A1, “ANTIMICROBIAL PEPTIDES FOR REMINERALIZATION OF TEETH AND PREVENTION OF DENTAL CARIES” (The University of Hong Kong, priority 2021, published 2025)
